Data published in PubChem BioAssay (NCI).
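Growth conditions: 96-well plates. Treatment: test compound, 48 hours, 5 concentrations. Analysis: linear interpolation between bracketing concentrations; unreached endpoints set to highest concentration. TGI marks complete inhibition of growth.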

Experiments:
Test in all cases: NCI-60 cell line screen, 48 h
NCI/ADR-RES ovarian = test system: NCI/ADR-RES ovarian
U251 CNS = test system: U251 CNS
HT29 colon = test system: HT29 colon
ACHN renal = test system: ACHN renal
OVCAR-8 ovarian = test system: OVCAR-8 ovarian
OVCAR-4 ovarian = test system: OVCAR-4 ovarian
HOP-62 NSCLC = test system: HOP-62 NSCLC
SF-295 CNS = test system: SF-295 CNS
HCT-116 colon = test system: HCT-116 colon
SN12C renal = test system: SN12C renal
MDA-MB-231 breast = test system: MDA-MB-231 breast
MALME-3M melanoma = test system: MALME-3M melanoma

Row | SMILES | TGI (NCI/ADR-RES ovarian) [µM] | TGI (U251 CNS) [µM] | TGI (HT29 colon) [µM] | TGI (ACHN renal) [µM] | TGI (OVCAR-8 ovarian) [µM] | TGI (OVCAR-4 ovarian) [µM] | TGI (HOP-62 NSCLC) [µM] | TGI (SF-295 CNS) [µM] | TGI (HCT-116 colon) [µM] | TGI (SN12C renal) [µM] | TGI (MDA-MB-231 breast) [µM] | TGI (MALME-3M melanoma) [µM]
1 | C[C@]12CC/C(=N\OCCN3CCCCC3)C=C1CCC1C2CC[C@@]2(C)C1CC[C@]2(C)O (stereo not given in full) | 20.5 | 26.6 | 10.2 | 39.6 | 27 | 76 | 43.7 | 14.3 | 21.3 | 33.5 | 28.2 | 23.2
2 | Cc1cc(C)n(CN(Cn2nc(C)cc2C)c2ccccc2)n1 | 57.7 | 44 | 35.6 | 51.5 | 56 | 52 | 66.8 | > 100 | 41.4 | 98.7 | > 100 | 52.7
3 | O=C(CCOS(=O)(=O)CF)N1CCN(C(=O)CCOS(=O)(=O)CF)CC1 | > 100 | > 100 | > 100 | > 88.7 | > 100 | > 100 | > 100 | > 46.4 | > 100 | > 100 | > 100 | > 100
4 | Oc1ccc(-c2cn3cc(C(F)(F)F)ccc3n2)cc1 | > 100 | > 100 | > 100 | > 100 | > 100 | > 100 | > 100 | > 100 | > 100 | > 100 | > 100 | > 100
5 | CC(=O)Oc1c(C)c2c(c3ccccc13)OC(C)(C)C2 | 51.4 | 33.4 | 35 | 31 | 32.5 | 30 | 34.5 | 30.9 | 42.9 | 34.5 | 48.6 | 30
6 | Cc1cc2c(cc1C)C(=O)/C(=N/Nc1ccc(F)cc1)CCO2 | > 100 | > 100 | > 100 | > 100 | > 100 | > 100 | > 100 | > 100 | > 100 | > 100 | > 100 | > 100
7 | CC(=O)N=C1N(/C=C2\C(=O)Oc3ccccc3C2=O)C(=O)/C(=C/c2ccccc2Cl)N1C | > 100 | > 100 | > 100 | > 100 | > 100 | > 100 | > 100 | > 100 | > 100 | > 100 | > 100 | > 100
8 | O=C1C(Cl)=C(N2CCN(c3ccccn3)CC2)C(=O)c2ncccc21 | 7.44 | 15.2 | 9.93 | 5.52 | 2.77 | 3.33 | 25.6 | 18.8 | 3.14 | 7 | 3.39 | 3.21
9 | CCOC(=O)c1[nH]c2nc(SC)nc(Nc3ccccc3Cl)c2c1N | 73.3 | 31 | 47.1 | 46.1 | 36.5 | 60.3 | 41.3 | 51.5 | > 100 | > 100 | 59.3 | 67
10 | C=CCn1cnc2c(=O)[nH]c(Nc3ccccc3)nc21 | > 100 | > 100 | > 100 | > 100 | > 100 | > 100 | > 100 | > 100 | > 100 | > 100 | > 100 | > 100
11 | CCCCCCCCCc1c(O)c(O)c(CCCCCCCCC)c(CCCCCCCCC)c1CCCCCCCCC | > 100 | > 100 | > 100 | > 100 | > 100 | > 100 | > 100 | > 100 | > 100 | > 100 | > 100 | > 100
12 | CC(=O)Nc1ccc2cc3[nH]c4cc(NC(C)=O)ccc4c3nc2c1 | > 100 | > 100 | > 100 | > 100 | > 100 | > 100 | > 100 | > 100 | > 100 | > 100 | > 100 | > 100
13 | O=[N+]([O-])c1nccn1CCCNCCCn1ccnc1[N+](=O)[O-] | > 100 | > 100 | > 100 | > 100 | > 100 | > 100 | > 100 | > 100 | > 100 | > 100 | > 100 | > 100
14 | CN(C)c1ccc(C(=NN)c2ccc(N(C)C)cc2)cc1 | 0.672 | 9.21 | > 21.8 | > 78.7 | > 100 | > 100 | > 57.6 | > 21.8 | > 100 | > 100 | 10 | > 100
15 | COC(=O)c1cc(C)n(CN(Cc2ccccc2)Cn2nc(C(=O)OC)cc2C)n1 | > 100 | > 100 | > 100 | > 65.6 | > 100 | > 100 | > 100 | > 100 | > 59.8 | > 100 | > 100 | > 100
16 | O=C(N/N=C(/COc1cccc(Cl)c1)N=Cc1cccnc1)c1ccncc1 | > 100 | > 100 | > 100 | > 100 | > 100 | > 100 | > 100 | > 100 | > 100 | > 100 | > 100 | > 100
17 | c1ccc(C2=Nc3cccc4cccc(c34)N2)cc1 | > 72.1 | > 100 | > 100 | 62.5 | > 87 | 42.6 | > 100 | > 100 | 50.8 | > 100 | 54.7 | > 77.6
18 | O=C1/C(=C/c2cccs2)NC(=S)N1CN1CCCC(CO)C1 (stereo not given) | > 100 | > 100 | > 100 | > 100 | > 100 | > 100 | > 100 | > 100 | > 100 | > 100 | > 100 | > 100

Row | SMILES | TGI (NCI/ADR-RES ovarian) [µM] | TGI (U251 CNS) [µM] | TGI (HT29 colon) [µM] | TGI (ACHN renal) [µM] | TGI (OVCAR-8 ovarian) [µM] | TGI (OVCAR-4 ovarian) [µM] | TGI (HOP-62 NSCLC) [µM] | TGI (SF-295 CNS) [µM] | TGI (HCT-116 colon) [µM] | TGI (SN12C renal) [µM] | TGI (MDA-MB-231 breast) [µM] | TGI (MALME-3M melanoma) [µM]
19 | CCN(CC)COC(=S)S | > 100 | > 100 | > 100 | > 100 | > 100 | > 100 | > 100 | > 100 | > 100 | > 100 | > 100 | > 100
20 | COC1(CC[C@H](C)COC2OC(CO)C(O)C(O)C2O)O[C@H]2C[C@H]3[C@@H]4CC=C5C[C@@H](OC6OC(CO)C(O)C(OC7OC(CO)C(O)C(O)C7O)C6OC6OC(C)C(O)C(O)C6O)CC[C@]5(C)[C@H]4CC[C@]3(C)[C@H]2[C@@H]1C (stereo not given in full) | 25.7 | 4.02 | > 21.8 | 36.3 | 9.47 | 14.9 | 12.4 | 10.1 | > 32.4 | > 31.1 | 15.5 | 6.11
21 | CN(C)C(=O)C1CCN(Cc2c[nH]c3ccccc23)CC1 | > 100 | > 100 | > 100 | > 100 | > 100 | > 100 | > 100 | > 100 | > 100 | > 100 | > 100 | > 100
22 | CC(=O)O[C@@H]1O[Si](C(C)(C)C)(C(C)(C)C)[C@H](C)[C@H]1C | > 100 | > 100 | 55.6 | > 100 | > 100 | > 100 | > 100 | > 100 | > 100 | > 100 | > 100 | 90.1
23 | Cc1c(-c2ccccc2)c(C#N)c2nnn(-c3cccc(Cl)c3)c(=O)n12 | > 100 | > 100 | > 100 | > 100 | > 100 | > 100 | > 100 | > 100 | > 100 | > 100 | 72.9 | > 100
24 | CC(C)CN(CC#N)CC(C)C | > 100 | > 100 | > 100 | > 100 | > 100 | > 100 | > 100 | > 100 | > 100 | > 100 | > 100 | > 100
25 | COc1cccc2cc(C(=O)Nc3ccccn3)c(=N)oc12 | > 100 | > 100 | > 100 | > 100 | > 100 | > 100 | > 100 | > 100 | > 100 | > 100 | > 100 | > 100
26 | CN(C)c1ccc(C2ON=C(c3ccccc3)N2C23CC4CC(CC(C4)C2)C3)cc1 (stereo not given) | > 10 | > 10 | > 10 | > 10 | > 10 | > 10 | > 10 | > 10 | > 10 | > 10 | > 10 | > 10
27 | CC1=CC(C)(C)Nc2ccc(CSc3ccccc3)cc21 | > 100 | > 100 | 38.2 | > 100 | > 100 | 46.1 | 80 | 48.2 | 91.9 | 62.1 | 94.1 | 47.5
28 | CC1OC(O[C@H]2CC[C@]3(C=O)[C@H]4CC[C@]5(C)[C@H](C6=CC(=O)OC6)CC[C@]5(O)[C@@H]4C=C[C@]3(O)C2)CC(O)C1O (stereo not given in full) | 0.623 | 0.694 | 1.5 | 0.41 | 0.754 | 0.838 | 0.503 | 0.489 | 0.349 | 0.464 | 2.57 | 0.361
29 | O=[N+]([O-])c1cccc2nc3ccccc3c(NCCCN3CCCCC3)c12 | 4.9 | 0.0734 | 0.326 | 0.0472 | 0.118 | 0.031 | 0.0433 | 0.0605 | 0.0629 | 0.0443 | 0.0509 | 0.038
30 | O=C(Nc1nc(C23CC4CC(CC(C4)C2)C3)cs1)c1cc2c(ccc3ccccc32)oc1=O | > 100 | > 100 | > 100 | > 100 | > 100 | > 100 | > 100 | > 100 | > 100 | > 100 | > 100 | > 100
31 | COCCOCCOCCOc1ccc(C(C#N)N(CCc2ccccc2)C(=O)c2cc(C(=O)N(CCc3ccccc3)C(C#N)c3ccc(OCCOCCOCCOC)cc3)cc(C(=O)N(CCc3ccccc3)C(C#N)c3ccc(OCCOCCOCCOC)cc3)c2)cc1 (stereo not given) | > 100 | > 100 | > 100 | > 100 | > 100 | > 100 | > 100 | > 100 | > 100 | > 100 | > 100 | > 100
32 | BrCC(Br)(c1ccccc1)c1ccccc1-c1cc(-c2ccccc2)cc(-c2ccccc2)n1 (stereo not given) | > 100 | 5.85 | 6.65 | 23.9 | 16.7 | 53.9 | 23.2 | 8.92 | 12.3 | 28 | 11.4 | 16.4
33 | CN(C)CCCNC(=O)c1cc(NC(=O)c2cc(NC(=O)[C@@H]3C[C@H]3C(=O)Nc3cc(C(=O)Nc4cc(C(=O)NCCCN(C)C)n(C)c4)n(C)c3)cn2C)cn1C | > 100 | > 100 | > 100 | > 100 | > 100 | > 100 | > 100 | > 100 | > 100 | > 100 | > 100 | > 100
34 | CCC(=O)NCCc1c2c3c(ccnc3c3ncsc13)-c1ccccc1N2 | > 100 | > 79.7 | > 100 | > 38.3 | > 71.1 | > 100 | > 100 | > 100 | 51.2 | > 100 | > 68.4 | > 100
35 | NC(N)=NC(N)=Nc1ccccc1 (tested in a mixture with another compound) | > 100 | > 100 | > 100 | > 100 | > 100 | > 100 | > 100 | > 100 | > 100 | > 100 | > 100 | > 100
